Experimental data: the METLIN SMRT retention time set (Domingo-Almenara et al. 2019)

Test: gradient 5% acetonitrile 3 min, to 50% in 2 min, to 85% in 15 min, held 3 min, 100 µL/min
Conditions: column: Zorbax Extend-C18 2.1 x 50 mm; eluents: water / acetonitrile, 0.1% formic acid
In short: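 The system's dead and dwell volumes were 40 μL and 900 μL, with a Zorbax Extend-C18 column (2.1 × 50 mm, 1.8 μm) run at 100 μL/min in water and acetonitrile containing 0.1% formic acid each. Pure standards were analyzed in mixtures of ~100 molecules by HPLC–quadrupole time-of-flight mass spectrometry in positive and negative ionization mode. Retention time was assigned from computationally picked, manually inspected adduct peaks.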

RP-LC retention time	SMILES
1140 s	CC(C)Cn1cc(S(=O)(=O)N2CCN(c3ccccc3F)CC2)c2cccnc21
731 s	Cc1cccc(C)c1NC(=O)Cn1cnc2onc(C)c2c1=O
670 s	Cn1ncc2cc3c(Nc4ccc(Cl)cc4)cccc3nc21
665 s	O=C(c1noc2c1CCCCC2)N1CCN(Cc2ccc3c(c2)OCO3)CC1
697 s	CCOCC(=O)Nc1ccc2c(c1)Sc1ncccc1C(=O)N2CC
1000 s	c1ccc(CCNc2nc(-c3ccccc3)no2)cc1
1040 s	Cc1cccc(-c2nnc(-c3ccc(Cl)c(S(=O)(=O)N(C)C)c3)o2)c1
923 s	CCOc1ccc(OCC)c(N2C=C(C#N)S(=O)(=O)c3c(F)cccc32)c1
792 s	O=S(=O)(CCc1ccccc1)NCC(O)Cc1ccccc1 (centres undefined)
797 s	O=C(CC1CCCCC1)NC1CCN(C(=O)c2cc(-c3cccc(Cl)c3)n[nH]2)CC1
578 s	Cc1ccccc1Cn1cnc2c(cnn2CCNC(=O)Cn2cnc3ccccc32)c1=O
1020 s	CCn1c(=O)c(N2CCC(NC(=O)Nc3ccc(Br)cc3)CC2)nc2ccccc21
1020 s	O=C(Cc1ccccc1Cl)N1CCc2cc(-c3ccno3)ccc21
841 s	CCc1noc(NC(C)=O)c1-c1ccc(OC)c(S(=O)(=O)Nc2ccc(F)cc2Cl)c1
621 s	O=C(NC1CCCCC1)N1CC(c2nnc(-c3ccncc3)o2)C2(CCOCC2)C1 (centres undefined)
728 s	CCCn1cnc2ccc(-c3noc(-c4cccc(OC)c4)n3)cc21
948 s	COc1ccc(-n2c(=O)n(C)c(=O)c3cc(C(=O)Nc4ccc(F)c(F)c4)cnc32)cc1
600 s	CCc1cc(=O)n(CC(=O)Nc2cccc(C)c2)c(N)n1
780 s	O=C(CN1CCN(Cc2ccc(F)cc2)C(=O)C1=O)NCc1ccc2c(c1)OCO2
650 s	COCCn1ncc(N2CCC(C(=O)N(C)CC(=O)Nc3ccc(F)cc3)C2)cc1=O (centres undefined)
685 s	Cc1ccc(CNC(=O)C2(C)CCCCC(=O)N2)cc1 (centres undefined)
983 s	COc1cccc(-c2nc(-c3cn(Cc4ccc(F)cc4)nn3)no2)c1

RP-LC retention time	SMILES
693 s	CCS(=O)(=O)c1nc2ccc(NS(=O)(=O)c3c(C)n[nH]c3C)cc2s1
976 s	COc1ccc(NC(=O)C2=Cc3cc(OC)ccc3OC=C2)cc1
1020 s	O=C1CC(c2ccccc2)Cc2[nH]c(=O)c(C(=O)Nc3cccc(C(F)(F)F)c3)cc21 (centres undefined)
763 s	Cc1cc(C(=O)N2CCC(c3nc4ccccc4s3)CC2)no1
897 s	COc1ccc(OCC(=O)Nc2ccc3c(c2)N(C(=O)C(C)C)CCC3)cc1
1190 s	CC1Oc2ccccc2N(Cc2nc(-c3ccc(F)c(Cl)c3)no2)C1=O (centres undefined)
750 s	COC(=O)c1ncn2c1C(=O)N(c1ccc(C)c(C)c1)C(C)(C(=O)NC1CCCC1)C2 (centres undefined)
768 s	Cc1ccc(C(=O)Nc2ccc(S(N)(=O)=O)cc2)cc1Br
579 s	O=C1CCC2(C(=O)N3CCN(c4ccccn4)CC3)CCC=C2N1C1CCCC1 (centres undefined)
572 s	Cc1ccc2c(Nc3ccc(CC(=O)O)cc3)c(C(=O)N3CCCC3)cnc2n1
653 s	O=C([C@@H]1C[C@H](F)CN1C(=O)c1ccsc1)N1CCCCC1
1170 s	Clc1ccc(Cc2noc(Cc3nc(-c4ccccc4)cs3)n2)cc1
669 s	CN(C)S(=O)(=O)c1ccc(-c2nnc(NC(=O)c3ccc4ncsc4c3)o2)cc1
545 s	COCCn1c(CCCC(=O)NCc2ccccn2)nc2cccnc21
655 s	COc1cc(C(=O)N2CCC3(CC2)NC(=O)c2ccc(F)cc2N3C)cc(OC)c1OC
944 s	CC(=O)c1ccc2c(c1)[C@H](NC(=O)c1ccc(F)c(Cl)c1)[C@H](O)C(C)(C)O2
697 s	CCC(=O)N1CCc2cc(C(=O)N3CCN(c4ncccn4)CC3)ccc21
830 s	CCn1cc(-c2nc(-c3ccc(OC)cc3OC)no2)c(=O)c2cc(F)ccc21
1240 s	c1ccc(-c2nc3cc(-c4noc(-c5ccco5)n4)ccc3o2)cc1
631 s	CCC1CCCCN1CCCNC(=O)c1cn(CCOC)c(=O)c2c1c1ccccc1n2C (centres undefined)
950 s	O=C(N[C@H]1C[C@@H]2C[C@H]1N(C(=O)Nc1ccc3c(c1)CCC3)C2)c1ccccc1
980 s	O=S(=O)(c1cccc(-c2nnc(SC/C=C/c3ccccc3)o2)c1)N1CCOCC1

RP-LC retention time	SMILES
918 s	CCOc1ccc(-c2[nH]ncc2CNS(=O)(=O)c2ccc(C(F)(F)F)cc2)cc1
712 s	CCOc1cc(C)c(C)cc1S(=O)(=O)n1cc(C)nc1CC
826 s	O=C(Cc1csc2nc(-c3ccccc3)cn12)N1CCc2ccccc2C1
782 s	COc1cc2nccc(Oc3ccc(NC(=O)Nc4ccc(F)cc4F)c(F)c3)c2cc1OC
1020 s	CN(C)c1ccc(-c2nc(-c3cn(Cc4cccc(F)c4)nn3)no2)cc1
686 s	O=C(c1ccoc1)N1CCCC1Cc1noc(-c2cnccn2)n1 (centres undefined)
913 s	O=C(c1ccc(F)c(Cl)c1)N1CCN(C(=O)c2nnn3c2COC(c2ccccc2)C3)CC1 (centres undefined)
706 s	C=CCc1ccccc1OCC(O)CNC(C)C (centres undefined)
645 s	O=C(CCCn1c(=O)c2cccn2c2ccc(F)cc21)NCCCN1CCCCCC1
1190 s	CC(C)(C)c1ccc(/C=C/C(=O)Nc2ccc3c(c2)OCCO3)cc1
690 s	COc1ccc2c(OCc3nnc4ccc(-c5ccccc5)nn34)ccnc2c1
1030 s	CCOc1ccc(Oc2cc3c(cc2NC(=O)COc2ccc(C)cc2)n(C)c(=O)c(=O)n3C)cc1
578 s	CC(C)NC(=O)N1C[C@@H]2CCCN3CCC[C@@H]([C@H]23)[C@H]1CCCC(=O)NCC1CC1
690 s	O=C(CN1CCC(c2nc(-c3cccs3)no2)CC1)NCc1ccccc1Cl
965 s	COc1cccc2cc(-c3nnc(NC(=O)c4ccc([N+](=O)[O-])s4)o3)oc12
841 s	Cc1noc(-c2ccnc(-n3ncc(C(=O)N4CCCCC4)c3C)c2)n1
874 s	COC(=O)N1CCc2ccc(F)cc2C1C(=O)Nc1ccc(OC)c(Cl)c1 (centres undefined)
609 s	COCCc1noc([C@@H]2CN(Cc3cccc(Cl)c3)C[C@H]2CO)n1
623 s	COC1C(=O)N(CC2CC2)C12CCN(Cc1ccc(F)c(F)c1)CC2 (centres undefined)
858 s	O=C(C1=CN(c2ccc(F)cc2)c2cc(F)ccc2S1(=O)=O)N1CCCCC1
902 s	CCCN(CC1CCOC1)C(=O)Nc1ccc(C)cc1Cl (centres undefined)
742 s	CC(C)c1nncn1C1CCN(S(=O)(=O)Cc2ccc(Cl)cc2)CC1

RP-LC retention time	SMILES
635 s	O=C(NCCn1nc(-n2cccn2)ccc1=O)C1(c2ccccc2)CCOCC1
692 s	Cn1cc(CN2CCC(C(=O)NC3CCCC3)CC2)c2cc(Cl)ccc21
790 s	COCCn1cc(CCNC(=O)Nc2ccc(C)cc2Cl)c2cccnc21
930 s	C=CC(=O)N1C/C(=C\c2ccccc2)C(=O)/C(=C/c2ccccc2)C1
1120 s	Cc1cccc(CNC(=O)C2(C)Oc3cccnc3N(C(C)C)C2=O)c1 (centres undefined)
835 s	O=c1ccn(-c2ccccc2)nc1-c1nc(-c2ccc3c(c2)OCO3)no1
959 s	CC1CN(C(=O)CSc2cn(CC(=O)N(C(C)C)C(C)C)c3ccccc23)CC(C)O1 (centres undefined)
981 s	COc1ccc(Cl)cc1NC(=O)Nc1ccc2c(c1)N(C)C(=O)C(C)(C)CO2
690 s	Cc1ccn2c(Nc3ccc4c(c3)OCO4)c(-c3ccccc3)nc2c1
1220 s	O=C(CCc1nc(-c2ccc(N3CCCC3)cc2)no1)Nc1ccc(Br)cc1F
1170 s	O=C(Nc1ccsc1-c1nnc(C2CC2)o1)c1ccsc1
772 s	Cc1cc(NC(=O)Cc2cc(-c3ccccc3F)on2)no1
615 s	CCc1cccc(N2C(=O)c3c(C(=O)OC)ncn3CC2(C)C(=O)NC2CCCC2)c1 (centres undefined)
974 s	CCCC(C)NC(=O)c1cc2c(s1)N(C)CCCC2 (centres undefined)
712 s	CCNC(=O)c1sc2nc(-c3ccccc3)c(NCCOC)n2c1C
755 s	CC(C)c1noc(C2CCCCN2C(=O)c2cnn3cccnc23)n1 (centres undefined)
807 s	Cc1cc2c(c(=O)n(-c3ccc(F)cc3)c(=O)n2CC(=O)Nc2ccc3c(c2)OCO3)n1C
923 s	COc1ccc(CC(=O)Nc2nnc(SCc3nnc(-c4ccccc4C)o3)s2)cc1
664 s	O=C(NCc1cccc(Cl)c1)C1CCCN(c2nc3ncccc3n3cccc23)C1 (centres undefined)
856 s	CCOC(=O)c1sc(NC(=O)Cc2ccc3c(c2)OCO3)cc1C
705 s	CC(NC(=O)C1CCN(c2cnc3nccnc3c2)CC1)c1ccccc1 (centres undefined)

SMILES	RP-LC retention time
Cn1cc(C(=O)Nc2ccc(Cl)cc2)c2cccnc21	835 s
O=S(=O)(c1ccccc1)N1[C@H]2CC[C@@H]1c1cncnc1C2	678 s
